# Test system: ΔG/SEAP/HCV E1E2
# Test: Effect of test substance on cell infection with HCV pseudotype virus (SEAP reporter assay in HepG2 cells)
# Type: cell-based
# Details: Hepatitis C virus
row,SMILES,IC50
1,"COc1cc(OC)cc(-c2nn(-c3cc(Nc4ccccc4)ccc3C(F)(F)F)c(=O)c3c2CCC3)c1 [Example 134, 4-(3,5-dimethoxy-phenyl)-2-(5-phenylamino-2-trifluoromethyl-phenyl)-2,5,6,7-tetrahydro-cyclopenta[d]pyridazin-1-one]",100 to 10000 nM
2,"COc1cc(OC)cc(-c2nn(-c3cc(NCc4ccccc4)ccc3C(F)(F)F)c(=O)c3c2CCC3)c1 [Example 135, 2-(5-benzylamino-2-trifluoromethyl-phenyl)-4-(3,5-dimethoxy-phenyl)-2,5,6,7-tetrahydro-cyclopenta[d]pyridazin-1-one]",100 to 10000 nM
3,"COc1cc(OC)cc(-c2nn(-c3cc(NCCc4ccccc4)ccc3C(F)(F)F)c(=O)c3c2CCC3)c1 [Example 136, 4-(3,5-dimethoxy-phenyl)-2-(5-phenethylamino-2-trifluoromethyl-phenyl)-2,5,6,7-tetrahydro-cyclopenta[d]pyridazin-1-one]",< 100 nM
4,"COc1cc(OC)cc(-c2nn(-c3cc(NCCNS(C)(=O)=O)ccc3C(F)(F)F)c(=O)c3c2CCC3)c1 [Example 137, N-(2-{3-[4-(3,5-dimethoxy-phenyl)-1-oxo-1,5,6,7-tetrahydro-cyclopenta[d]pyridazin-2-yl]-4-trifluoromethyl-phenylamino}-ethyl)-methanesulfonamide]",< 100 nM
5,"CNC(=O)CCNc1ccc(C(F)(F)F)c(-n2nc(-c3cc(OC)cc(OC)c3)c3c(c2=O)CCC3)c1 [Example 138, 3-{3-[4-(3,5-dimethoxy-phenyl)-1-oxo-1,5,6,7-tetrahydro-cyclopenta[d]pyridazin-2-yl]-4-trifluoromethyl-phenylamino}-N-methyl-propionamide]",< 100 nM
6,"COc1cc(OC)cc(-c2nn(-c3cc(NCCC(=O)N(C)C)ccc3C(F)(F)F)c(=O)c3c2CCC3)c1 [Example 139, 3-{3-[4-(3,5-dimethoxy-phenyl)-1-oxo-1,5,6,7-tetrahydro-cyclopenta[d]pyridazin-2-yl]-4-trifluoromethyl-phenylamino}-N,N-dimethyl-propionamide]",< 100 nM
7,"COc1cc(OC)cc(-c2nn(-c3cc(NC4CC4)ccc3C(F)(F)F)c(=O)c3c2CCC3)c1 [Example 140, 2-(5-cyclopropylamino-2-trifluoromethyl-phenyl)-4-(3,5-dimethoxy-phenyl)-2,5,6,7-tetrahydro-cyclopenta[d]pyridazin-1-one]",< 100 nM
8,"COc1cc(OC)cc(-c2nn(-c3cc(NCC4CC4)ccc3C(F)(F)F)c(=O)c3c2CCC3)c1 [Example 141, 2-[5-(cyclopropylmethyl-amino)-2-trifluoromethylphenyl]-4-(3,5-dimethoxy-phenyl)-2,5,6,7-tetrahydro-cyclopenta[d]pyridazin-1-one]",< 100 nM
9,"COc1cc(OC)cc(-c2nn(-c3cc(NCCC(N)=O)ccc3C(F)(F)F)c(=O)c3c2CCC3)c1 [Example 142, 3-{3-[4-(3,5-dimethoxy-phenyl)-1-oxo-1,5,6,7-tetrahydro-cyclopenta[d]pyridazin-2-yl]-4-trifluoromethyl-phenylamino}-propionamide]",< 100 nM
10,"COC(=O)CCNc1ccc(C(F)(F)F)c(-n2nc(-c3cc(OC)cc(OC)c3)c3c(c2=O)CCC3)c1 [Example 143, 3-{3-[4-(3,5-dimethoxy-phenyl)-1-oxo-1,5,6,7-tetrahydro-cyclopenta[d]pyridazin-2-yl]-4-trifluoromethyl-phenylamino}-propionic acid methyl ester]",< 100 nM
11,"CC(C)Cc1nn(-c2cc(N3CC[C@H](O)C3)ccc2C(F)(F)F)c(=O)c2c1CCC2 [Example 144, 2-[5-((S)-3-hydroxy-pyrrolidin-1-yl)-2-trifluoromethyl-phenyl]-4-isobutyl-2,5,6,7-tetrahydro-cyclopenta[d]pyridazin-1-one]",100 to 10000 nM
12,"COc1cc(OC)cc(-c2nn(-c3cc(N(C)CCCO)ccc3C(F)(F)F)c(=O)c3c2CCC3)c1 [Example 145, 4-(3,5-dimethoxy-phenyl)-2-{5-[(3-hydroxypropyl)-methyl-amino]-2-trifluoromethyl-phenyl}-2,5,6,7-tetrahydro-cyclopenta[d]pyridazin-1-one]",< 100 nM
13,"COc1cc(OC)cc(-c2nn(-c3cc(NC4CCCC4)ccc3C(F)(F)F)c(=O)c3c2CCC3)c1 [Example 146, 2-(5-cyclopentylamino-2-trifluoromethyl-phenyl)-4-(3,5-dimethoxy-phenyl)-2,5,6,7-tetrahydro-cyclopenta[d]pyridazin-1-one]",< 100 nM
14,"COc1cc(OC)cc(-c2nn(-c3cc(NCCC4CC4)ccc3C(F)(F)F)c(=O)c3c2CCC3)c1 [Example 147, 2-[5-(2-cyclopropyl-ethylamino)-2-trifluoromethyl-phenyl]-4-(3,5-dimethoxy-phenyl)-2,5,6,7-tetrahydro-cyclopenta[d]pyridazin-1-one]",< 100 nM
15,"COc1cc(OC)cc(-c2nn(-c3cc(NCC4CCCC4)ccc3C(F)(F)F)c(=O)c3c2CCC3)c1 [Example 148, 2-[5-(cyclopentylmethyl-amino)-2-trifluoromethylphenyl]-4-(3,5-dimethoxy-phenyl)-2,5,6,7-tetrahydro-cyclopenta[d]pyridazin-1-one]",100 to 10000 nM
16,"COc1cc(OC)cc(-c2nn(-c3cc(CO)ccc3C(F)(F)F)c(=O)c3c2CCC3)c1 [Example 149, 4-(3,5-dimethoxy-phenyl)-2-(5-hydroxymethyl-2-trifluoromethyl-phenyl)-2,5,6,7-tetrahydro-cyclopenta[d]pyridazin-1-one]",< 100 nM
17,"COc1cc(OC)cc(-c2nn(-c3cc(N4CCCC4=O)ccc3C(F)(F)F)c(=O)c3c2CCC3)c1 [Example 150, 4-(3,5-dimethoxy-phenyl)-2-[5-(2-oxo-pyrrolidin-1-yl)-2-trifluoromethyl-phenyl]-2,5,6,7-tetrahydro-cyclopenta[d]pyridazin-1-one]",< 100 nM
18,"COc1cc(OC)cc(-c2nn(-c3cc(NCCCC(=O)O)ccc3C(F)(F)F)c(=O)c3c2CCC3)c1 [Example 151, 4-{3-[4-(3,5-dimethoxy-phenyl)-1-oxo-1,5,6,7-tetrahydro-cyclopenta[d]pyridazin-2-yl]-4-trifluoromethyl-phenylamino}-butyric acid]",< 100 nM
19,"COc1cc(OC)cc(-c2nn(-c3cc(NCCCC(N)=O)ccc3C(F)(F)F)c(=O)c3c2CCC3)c1 [Example 152, 4-{3-[4-(3,5-dimethoxy-phenyl)-1-oxo-1,5,6,7-tetrahydro-cyclopenta[d]pyridazin-2-yl]-4-trifluoromethyl-phenylamino}-butyramide]",< 100 nM
20,"CNC(=O)CCCNc1ccc(C(F)(F)F)c(-n2nc(-c3cc(OC)cc(OC)c3)c3c(c2=O)CCC3)c1 [Example 153, 4-{3-[4-(3,5-dimethoxy-phenyl)-1-oxo-1,5,6,7-tetrahydro-cyclopenta[d]pyridazin-2-yl]-4-trifluoromethyl-phenylamino}-N-methyl-butyramide]",< 100 nM
21,"COc1cc(OC)cc(-c2nn(-c3cc(NCCCC(=O)N(C)C)ccc3C(F)(F)F)c(=O)c3c2CCC3)c1 [Example 154, 4-{3-[4-(3,5-dimethoxy-phenyl)-1-oxo-1,5,6,7-tetrahydro-cyclopenta[d]pyridazin-2-yl]-4-trifluoromethyl-phenylamino}-N,N-dimethyl-butyramide]",< 100 nM

# Source: patent EP1953147A1, “HETEROCYCLIC COMPOUND AND MEDICINAL APPLICATION THEREOF” (priority 2005, dated 2007)
